Tests used:
Candida albicans [1] = assay: Antifungal activity against Candida albicans ATCC 10231 at 10 ug/ml after 48 hrs by cup plate method; assay type: functional; details: ATCC 10231, 48 h
Candida albicans [2] = assay: Antifungal activity against Candida albicans ATCC 10231 at 50 ug/ml after 48 hrs by cup plate method; assay type: functional; details: ATCC 10231, 48 h
[3] = molecular target: T1, Lanosterol 14-alpha demethylase (Candida albicans (strain SC5314 / ATCC MYA-2876) (Yeast), UniProt P10613); assay: Inhibition of Candida albicans lanosterol 14-alpha demethylase assessed as reduction of ergosterol biosynthesis at 50 ug/ml after 18 hrs by UV spectroscopy analysis
[4] = molecular target: T1, Lanosterol 14-alpha demethylase; assay: Inhibition of Candida albicans lanosterol 14-alpha demethylase assessed as reduction of ergosterol biosynthesis at 10 ug/ml after 18 hrs by UV spectroscopy analysis
[5] = molecular target: T1, Lanosterol 14-alpha demethylase; assay: Inhibition of Candida albicans lanosterol 14-alpha demethylase assessed as reduction of ergosterol biosynthesis at 100 ug/ml after 18 hrs by UV spectroscopy analysis
Candida albicans [6] = assay: Antifungal activity against Candida albicans ATCC 10231 at 100 ug/ml after 48 hrs by cup plate method; assay type: functional; details: ATCC 10231, 48 h

T1 sequence (P10613 whole entry): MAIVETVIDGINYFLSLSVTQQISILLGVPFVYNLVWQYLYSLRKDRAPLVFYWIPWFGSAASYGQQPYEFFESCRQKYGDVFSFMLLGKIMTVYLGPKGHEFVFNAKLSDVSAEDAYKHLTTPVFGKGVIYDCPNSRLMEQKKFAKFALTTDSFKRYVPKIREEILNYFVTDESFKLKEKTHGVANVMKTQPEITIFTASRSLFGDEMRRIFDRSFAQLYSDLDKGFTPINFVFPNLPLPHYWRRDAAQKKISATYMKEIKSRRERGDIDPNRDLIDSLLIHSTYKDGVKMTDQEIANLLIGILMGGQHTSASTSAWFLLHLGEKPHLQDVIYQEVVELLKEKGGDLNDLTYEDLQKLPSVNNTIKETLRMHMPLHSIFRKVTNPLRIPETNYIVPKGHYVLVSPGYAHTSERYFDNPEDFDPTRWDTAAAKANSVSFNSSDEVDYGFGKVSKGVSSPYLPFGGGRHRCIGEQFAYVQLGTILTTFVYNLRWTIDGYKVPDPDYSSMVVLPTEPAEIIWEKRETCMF

| SMILES | inhibition at 10 µg/mL (Candida albicans [1]) [%] | inhibition at 50 µg/mL (Candida albicans [2]) [%] | inhibition at 50 µg/mL [3] [%] | inhibition at 10 µg/mL [4] [%] | inhibition at 100 µg/mL [5] [%] | inhibition at 100 µg/mL (Candida albicans [6]) [%] |
| --- | --- | --- | --- | --- | --- | --- |
| CCCCNC(=O)c1ccc2[nH]nnc2c1 | 4.16 | 27.4 | 22.7 | 7.91 | 38.1 | 54.3 |
| Cc1ccccc1NCc1ccc2[nH]nnc2c1 | 0 | 34.2 | 65.8 | 49.9 | 65.8 | 67.7 |
| Cc1ccccc1NC(=O)c1ccc2[nH]nnc2c1 | 4.16 | 23.7 | 35.7 | 12.6 | 42.5 | 58.4 |
| Cc1ccccc1OCc1ccc2[nH]nnc2c1 | 0 | 36.4 | 54 | 50.5 | 54.4 | 66.1 |
| CCCCNCc1ccc2[nH]nnc2c1 | 12.5 | 30 | 45.5 | 1.55 | 47.8 | 64.3 |
| c1ccc(CNCc2ccc3[nH]nnc3c2)cc1 | 12.5 | 27.4 | 48.5 | 46.5 | 66 | 67.7 |
| O=C(NCc1ccccc1)c1ccc2[nH]nnc2c1 | 4.16 | 28.5 | 33.1 | 15.9 | 41.3 | 54.1 |
| Cc1ccccc1NCn1nnc2ccccc21 | 0 | 4.16 | 29.4 | 11.6 | 31.3 | 50.2 |
| OC(Cn1cncn1)(Cn1cncn1)c1ccc(F)cc1F [FLUCONAZOLE] | 12.5 | 30 | 47.7 | 45.5 | 51.2 | 65.5 |

Reference: ChEMBL document CHEMBL3603775, “Design, synthesis and evaluation of benzotriazole derivatives as novel antifungal agents” (Bioorg Med Chem Lett, 2015)
